Tests used:
Assay in all cases: Kinase panel study
Assay type in all cases: biochemical
Settings in all cases: read-out: Percentage of inhibition; for inhibition at 1 µM: 1000nM; for inhibition at 10 µM: 10000nM
[1] = molecular target: T1, MATK (HYL) (Homo sapiens, UniProt P42679)
T1 construct: purchased Thermo Fisher Scientific
T1 sequence (P42679 1-507): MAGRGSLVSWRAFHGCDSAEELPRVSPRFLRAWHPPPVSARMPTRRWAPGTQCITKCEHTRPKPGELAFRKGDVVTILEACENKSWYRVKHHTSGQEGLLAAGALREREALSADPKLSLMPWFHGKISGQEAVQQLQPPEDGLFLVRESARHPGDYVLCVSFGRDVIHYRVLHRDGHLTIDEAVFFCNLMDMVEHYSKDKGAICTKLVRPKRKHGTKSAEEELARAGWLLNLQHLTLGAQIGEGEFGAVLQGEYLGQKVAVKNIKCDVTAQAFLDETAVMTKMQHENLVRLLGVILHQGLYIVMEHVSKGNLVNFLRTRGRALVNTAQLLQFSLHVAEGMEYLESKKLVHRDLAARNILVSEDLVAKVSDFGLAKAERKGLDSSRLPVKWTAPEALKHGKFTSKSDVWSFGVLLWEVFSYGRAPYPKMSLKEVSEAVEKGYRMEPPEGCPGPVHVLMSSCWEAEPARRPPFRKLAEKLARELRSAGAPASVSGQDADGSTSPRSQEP
Summary of the method: (§1)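 Readout is percentage kinase inhibition. Testing used 1 µM or 10 µM compound in externally run ZLyte/Adapta in vitro assays, and IC50 values were derived within the same panel.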

[2] = molecular target: T2, CSNK1D (CK1 delta) (Homo sapiens, UniProt P48730)
T2 construct: purchased Thermo Fisher Scientific
T2 sequence (P48730 whole entry): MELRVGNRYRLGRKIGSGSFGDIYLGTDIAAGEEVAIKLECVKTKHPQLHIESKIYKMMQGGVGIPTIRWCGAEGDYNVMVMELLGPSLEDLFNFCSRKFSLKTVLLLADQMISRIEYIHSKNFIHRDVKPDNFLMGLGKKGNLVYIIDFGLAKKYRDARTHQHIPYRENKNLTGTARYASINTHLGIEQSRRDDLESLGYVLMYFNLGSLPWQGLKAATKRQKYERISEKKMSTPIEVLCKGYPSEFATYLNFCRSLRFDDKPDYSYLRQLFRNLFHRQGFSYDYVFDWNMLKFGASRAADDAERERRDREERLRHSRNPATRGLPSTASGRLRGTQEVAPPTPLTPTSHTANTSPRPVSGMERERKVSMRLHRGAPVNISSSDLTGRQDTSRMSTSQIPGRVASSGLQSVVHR
Summary of the method: as §1

[3] = molecular target: T3, AMPK (A2/B1/G2) (Homo sapiens, UniProt P54646)
T3 construct: purchased Thermo Fisher Scientific
T3 sequence (P54646 whole entry): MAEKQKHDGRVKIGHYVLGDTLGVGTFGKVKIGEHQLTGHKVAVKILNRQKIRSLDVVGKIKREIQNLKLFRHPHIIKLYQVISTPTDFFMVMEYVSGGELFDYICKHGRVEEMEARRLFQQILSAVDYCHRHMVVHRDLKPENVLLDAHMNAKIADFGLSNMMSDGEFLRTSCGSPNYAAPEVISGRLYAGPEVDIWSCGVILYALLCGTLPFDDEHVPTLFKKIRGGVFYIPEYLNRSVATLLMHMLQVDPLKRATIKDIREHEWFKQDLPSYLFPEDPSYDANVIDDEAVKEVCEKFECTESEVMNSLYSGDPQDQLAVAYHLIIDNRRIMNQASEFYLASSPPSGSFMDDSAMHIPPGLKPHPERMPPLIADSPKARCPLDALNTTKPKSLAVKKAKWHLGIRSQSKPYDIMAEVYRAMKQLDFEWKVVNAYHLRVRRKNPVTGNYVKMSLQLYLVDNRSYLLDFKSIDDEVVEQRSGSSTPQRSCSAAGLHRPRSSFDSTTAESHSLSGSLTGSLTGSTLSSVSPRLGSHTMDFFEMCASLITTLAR
T3 sequence (Q9Y478 whole entry partner): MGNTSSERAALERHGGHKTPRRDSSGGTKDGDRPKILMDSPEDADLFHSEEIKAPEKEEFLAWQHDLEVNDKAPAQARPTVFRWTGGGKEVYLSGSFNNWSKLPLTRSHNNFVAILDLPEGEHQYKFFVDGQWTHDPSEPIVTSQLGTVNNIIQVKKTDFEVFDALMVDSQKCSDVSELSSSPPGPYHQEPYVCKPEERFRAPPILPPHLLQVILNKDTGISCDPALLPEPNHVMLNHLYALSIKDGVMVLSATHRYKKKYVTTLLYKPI
T3 sequence (Q9UGJ0 whole entry partner): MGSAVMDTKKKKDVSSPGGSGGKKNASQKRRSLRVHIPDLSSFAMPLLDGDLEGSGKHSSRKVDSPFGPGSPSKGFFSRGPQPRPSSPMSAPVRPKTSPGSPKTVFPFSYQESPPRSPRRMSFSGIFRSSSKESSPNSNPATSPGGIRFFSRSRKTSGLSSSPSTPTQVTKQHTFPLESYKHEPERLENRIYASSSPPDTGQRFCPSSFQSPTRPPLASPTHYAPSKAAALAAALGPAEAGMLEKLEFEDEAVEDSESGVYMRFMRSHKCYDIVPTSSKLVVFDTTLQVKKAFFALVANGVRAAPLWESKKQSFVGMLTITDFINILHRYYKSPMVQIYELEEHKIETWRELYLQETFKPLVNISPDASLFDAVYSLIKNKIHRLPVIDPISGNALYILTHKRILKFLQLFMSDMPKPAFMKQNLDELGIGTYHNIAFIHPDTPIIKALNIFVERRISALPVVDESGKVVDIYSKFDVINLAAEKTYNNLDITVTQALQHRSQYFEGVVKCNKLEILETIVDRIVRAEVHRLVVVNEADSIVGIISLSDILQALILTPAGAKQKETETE
Summary of the method: as §1

[4] = molecular target: T4, FGFR2 (Homo sapiens, UniProt P21802)
T4 construct: purchased Thermo Fisher Scientific
T4 sequence (P21802 22-821): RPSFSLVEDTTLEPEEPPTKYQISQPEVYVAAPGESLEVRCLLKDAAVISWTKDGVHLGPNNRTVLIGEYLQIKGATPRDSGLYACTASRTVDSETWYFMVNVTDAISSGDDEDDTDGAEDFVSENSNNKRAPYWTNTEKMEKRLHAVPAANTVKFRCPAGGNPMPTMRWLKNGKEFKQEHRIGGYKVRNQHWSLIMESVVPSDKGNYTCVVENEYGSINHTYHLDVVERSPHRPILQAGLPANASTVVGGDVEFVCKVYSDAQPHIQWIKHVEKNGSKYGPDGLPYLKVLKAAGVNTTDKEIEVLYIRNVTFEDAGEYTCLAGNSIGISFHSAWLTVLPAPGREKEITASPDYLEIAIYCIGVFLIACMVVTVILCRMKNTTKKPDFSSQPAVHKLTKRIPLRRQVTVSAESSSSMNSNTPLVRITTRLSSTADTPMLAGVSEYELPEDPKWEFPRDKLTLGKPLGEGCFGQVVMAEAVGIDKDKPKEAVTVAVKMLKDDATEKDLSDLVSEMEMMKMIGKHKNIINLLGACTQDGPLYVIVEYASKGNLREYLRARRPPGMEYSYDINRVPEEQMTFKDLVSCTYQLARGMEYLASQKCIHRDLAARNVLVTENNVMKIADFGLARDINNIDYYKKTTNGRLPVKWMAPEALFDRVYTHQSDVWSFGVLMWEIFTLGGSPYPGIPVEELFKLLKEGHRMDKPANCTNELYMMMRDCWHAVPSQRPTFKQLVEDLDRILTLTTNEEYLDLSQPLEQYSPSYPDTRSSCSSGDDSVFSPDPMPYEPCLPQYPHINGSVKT
Summary of the method: as §1

[5] = molecular target: T5, PRKCB1 (PKC beta I) (Homo sapiens, UniProt P05771)
T5 construct: purchased Thermo Fisher Scientific
T5 sequence (P05771 whole entry): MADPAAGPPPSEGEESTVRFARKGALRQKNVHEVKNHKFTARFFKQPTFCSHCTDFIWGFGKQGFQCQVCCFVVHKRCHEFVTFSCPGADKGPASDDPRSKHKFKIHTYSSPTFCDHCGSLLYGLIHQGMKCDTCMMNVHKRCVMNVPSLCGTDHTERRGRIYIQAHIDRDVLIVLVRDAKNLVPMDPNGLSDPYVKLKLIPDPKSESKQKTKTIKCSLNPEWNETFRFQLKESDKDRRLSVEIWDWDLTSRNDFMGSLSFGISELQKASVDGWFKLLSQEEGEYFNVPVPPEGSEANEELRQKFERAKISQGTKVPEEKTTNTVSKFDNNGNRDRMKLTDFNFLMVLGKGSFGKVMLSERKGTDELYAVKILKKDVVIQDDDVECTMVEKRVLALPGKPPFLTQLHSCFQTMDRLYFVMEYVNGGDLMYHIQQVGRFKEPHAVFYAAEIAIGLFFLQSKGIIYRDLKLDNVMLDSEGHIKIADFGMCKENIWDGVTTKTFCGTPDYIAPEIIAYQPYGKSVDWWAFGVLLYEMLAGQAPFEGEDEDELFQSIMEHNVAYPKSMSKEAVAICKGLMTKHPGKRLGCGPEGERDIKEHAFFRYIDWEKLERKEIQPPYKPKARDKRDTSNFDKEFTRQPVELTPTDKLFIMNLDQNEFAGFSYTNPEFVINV
Summary of the method: as §1

[6] = molecular target: T6, LRRK2 G2019S FL (Homo sapiens, UniProt Q5S007, G2019S)
T6 construct: LRRK2 G2019S FL; purchased Thermo Fisher Scientific
Summary of the method: as §1

[7] = molecular target: T7, CDK5/p25 (Homo sapiens, UniProt Q00535)
T7 construct: purchased Thermo Fisher Scientific
T7 sequence (Q00535 whole entry): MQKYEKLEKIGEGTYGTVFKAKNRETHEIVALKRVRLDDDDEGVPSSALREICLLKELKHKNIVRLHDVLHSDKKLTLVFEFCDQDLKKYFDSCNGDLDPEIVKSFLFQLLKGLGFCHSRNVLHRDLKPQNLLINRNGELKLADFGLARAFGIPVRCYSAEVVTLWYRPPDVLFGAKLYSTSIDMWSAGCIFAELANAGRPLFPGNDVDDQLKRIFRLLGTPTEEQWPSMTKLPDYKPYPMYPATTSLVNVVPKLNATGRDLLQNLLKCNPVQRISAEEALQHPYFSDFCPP
T7 sequence (Q15078 99-307 partner limits assumed): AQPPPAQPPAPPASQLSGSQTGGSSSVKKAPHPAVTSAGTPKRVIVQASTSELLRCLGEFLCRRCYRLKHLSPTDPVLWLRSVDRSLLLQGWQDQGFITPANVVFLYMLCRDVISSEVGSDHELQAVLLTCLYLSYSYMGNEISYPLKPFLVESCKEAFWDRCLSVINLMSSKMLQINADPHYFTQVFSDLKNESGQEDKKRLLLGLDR
Summary of the method: as §1

[8] = molecular target: T8, CDC42 BPG (MRCKG) (Homo sapiens, UniProt Q6DT37)
T8 construct: purchased Thermo Fisher Scientific
Summary of the method: as §1

[9] = molecular target: T9, EPHB4 (Homo sapiens, UniProt P54760)
T9 construct: purchased Thermo Fisher Scientific
T9 sequence (P54760 16-987): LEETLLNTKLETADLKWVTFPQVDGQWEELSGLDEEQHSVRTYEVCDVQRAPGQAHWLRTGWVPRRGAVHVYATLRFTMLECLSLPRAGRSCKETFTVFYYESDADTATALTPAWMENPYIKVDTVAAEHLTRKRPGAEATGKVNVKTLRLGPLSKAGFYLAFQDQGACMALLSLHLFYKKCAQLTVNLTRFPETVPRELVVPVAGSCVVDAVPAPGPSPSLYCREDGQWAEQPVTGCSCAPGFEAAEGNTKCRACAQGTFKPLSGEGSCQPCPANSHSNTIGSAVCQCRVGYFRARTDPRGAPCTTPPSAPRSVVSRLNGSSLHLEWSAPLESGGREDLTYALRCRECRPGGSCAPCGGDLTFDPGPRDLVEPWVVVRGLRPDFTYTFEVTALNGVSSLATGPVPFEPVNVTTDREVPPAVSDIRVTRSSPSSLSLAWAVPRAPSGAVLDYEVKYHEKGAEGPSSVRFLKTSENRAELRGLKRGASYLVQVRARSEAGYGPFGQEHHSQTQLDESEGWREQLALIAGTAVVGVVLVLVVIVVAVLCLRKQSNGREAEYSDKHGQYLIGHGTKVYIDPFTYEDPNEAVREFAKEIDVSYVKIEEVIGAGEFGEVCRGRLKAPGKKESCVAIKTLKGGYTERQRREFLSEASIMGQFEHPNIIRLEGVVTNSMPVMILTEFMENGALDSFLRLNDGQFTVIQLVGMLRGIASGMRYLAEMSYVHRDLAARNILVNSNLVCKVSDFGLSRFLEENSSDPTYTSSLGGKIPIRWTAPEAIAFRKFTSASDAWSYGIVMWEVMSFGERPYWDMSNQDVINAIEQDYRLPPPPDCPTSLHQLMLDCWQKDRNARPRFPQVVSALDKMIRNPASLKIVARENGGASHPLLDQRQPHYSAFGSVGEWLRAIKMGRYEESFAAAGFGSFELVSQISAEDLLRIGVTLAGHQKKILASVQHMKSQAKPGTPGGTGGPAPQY
Summary of the method: as §1

[10] = molecular target: T10, PKN1 (PRK1) (Homo sapiens, UniProt Q16512)
T10 construct: purchased Thermo Fisher Scientific
T10 sequence (Q16512 whole entry): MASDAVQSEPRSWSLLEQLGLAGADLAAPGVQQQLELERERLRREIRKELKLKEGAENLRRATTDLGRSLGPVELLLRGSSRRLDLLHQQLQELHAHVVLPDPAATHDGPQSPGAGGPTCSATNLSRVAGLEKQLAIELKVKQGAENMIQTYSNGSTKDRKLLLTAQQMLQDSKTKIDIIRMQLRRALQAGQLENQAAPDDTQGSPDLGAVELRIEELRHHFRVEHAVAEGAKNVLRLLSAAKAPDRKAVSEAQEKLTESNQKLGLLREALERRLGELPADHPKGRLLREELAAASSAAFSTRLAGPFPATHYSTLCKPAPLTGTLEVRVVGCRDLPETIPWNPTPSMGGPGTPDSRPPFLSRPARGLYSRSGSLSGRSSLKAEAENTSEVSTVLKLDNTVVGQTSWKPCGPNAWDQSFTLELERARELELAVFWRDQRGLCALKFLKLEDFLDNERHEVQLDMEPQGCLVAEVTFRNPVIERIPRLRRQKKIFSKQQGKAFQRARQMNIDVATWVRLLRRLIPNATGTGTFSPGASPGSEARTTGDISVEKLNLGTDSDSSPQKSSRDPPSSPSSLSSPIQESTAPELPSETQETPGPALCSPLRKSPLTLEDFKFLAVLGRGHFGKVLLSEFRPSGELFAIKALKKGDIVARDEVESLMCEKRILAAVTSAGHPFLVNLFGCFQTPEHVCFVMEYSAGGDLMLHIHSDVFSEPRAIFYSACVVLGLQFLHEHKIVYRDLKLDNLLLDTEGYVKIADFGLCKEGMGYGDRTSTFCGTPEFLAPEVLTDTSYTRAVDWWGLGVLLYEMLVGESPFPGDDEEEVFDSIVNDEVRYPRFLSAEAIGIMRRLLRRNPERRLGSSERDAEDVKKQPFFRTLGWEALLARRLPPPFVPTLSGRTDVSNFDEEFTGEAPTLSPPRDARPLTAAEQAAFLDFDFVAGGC
Summary of the method: as §1

| Structure (SMILES) | inhibition at 1 µM [1] [%] | inhibition at 10 µM [1] [%] | inhibition at 1 µM [2] [%] | inhibition at 10 µM [2] [%] | inhibition at 1 µM [3] [%] | inhibition at 10 µM [3] [%] | inhibition at 1 µM [4] [%] | inhibition at 10 µM [4] [%] | inhibition at 1 µM [5] [%] | inhibition at 10 µM [5] [%] | inhibition at 1 µM [6] [%] | inhibition at 10 µM [6] [%] | inhibition at 1 µM [7] [%] | inhibition at 10 µM [7] [%] | inhibition at 1 µM [8] [%] | inhibition at 10 µM [8] [%] | inhibition at 1 µM [9] [%] | inhibition at 10 µM [9] [%] | inhibition at 1 µM [10] [%] | inhibition at 10 µM [10] [%] |
| --- | --- | --- | --- | --- | --- | --- | --- | --- | --- | --- | --- | --- | --- | --- | --- | --- | --- | --- | --- | --- |
| COc1ccc2c(c1OC)c(=O)n1c3ccc(O)cc3c3ccnc2c31 [MW01, 5-Hydroxy-10,11-dimethoxy-9H-benzo[c]indolo[3,2,1-ij][1,5]naphthyridin-9-one] | 14 | 2 | 13 | 39 | -12 | 10 | 13 | 11 | 1 | -17 | 87 | 90 | 4 | 12 | 1 | 5 | 5 | 7 | 9 | 16 |
| COc1ccc2cc3c(N)nn(C(=O)c4cccc(N(C)C)c4)c3nc2c1 [MW05, (3-Amino-7-methoxypyrazolo[3,4-b]quinolin-1-yl)-[3-(dimethylamino)phenyl]methanone] | 13 | 13 | -1 | -1 | -12 | -16 | 0 | -5 | 5 | -7 | -1 | 11 | 4 | 8 | 0 | 0 | -3 | 2 | 15 | 4 |

Reference: patent EP4467141A1, “PYRAZOLO-QUINOLINES AS SELECTIVE INHIBITORS OF GENOTOXIC STRESS-INDUCED IKK/NF- KB PATHWAYS FOR CANCER THERAPY” (Max-Delbrück-Centrum für Molekulare Medizin in der …, priority 2023, dated 2024)
